Experimental data as given in article PMC7922564, “Molecular Insights into an Antibiotic Enhancer Action of New Morpholine-Containing 5-Arylideneimidazolones in the Fight against MDR Bacteria” (International Journal of Molecular Sciences, 2021).
Like-named read-outs stand apart in the source and are kept apart here.

Tests used:
S. aureus ATCC 25923 [1] = assay: MIC determination (microdilution), S. aureus ATCC 25923; assay type: cell-based, Staphylococcus aureus; conditions: Staphylococcus aureus, ATCC25923, unstarred values of column MIC value/no precipitation; read-out: MIC value
Protocol: (§1) Determination of MIC values, i.e., intrinsic antibacterial activity, of products and antibiotics (oxacillin, ampicillin, vancomycin, ciprofloxacin, and erythromycin) in the presence and absence of compounds tested was conducted by the use of a standard 2-fold microdilution method in cation-adjusted Mueller Hinton broth following the Clinical and Laboratory Standards Institute (CLSI) guidelines. The MIC values were detected using an Infinite M200 pro Tecan microplate reader (Tecan® France, SA-Lyon, France). MIC determinations were conducted in 96-well microtiter plates and repeated 3–4 times.
(§2) Initially, MICs of a series of imidazolone derivatives were assessed against susceptible (reference) and MDR strains of staphylococci. Next, MIC values of the aforementioned antibiotics were determined in the absence and presence of imidazolone derivatives to assess the chemosensitizing effect of these compounds. […] 5-arylideneimidazolones and 5-arylidenethiazolones, which precipitated after addition to bacterial suspension in MH II medium, were tested at the highest concentrations at which precipitation was not observed. […] Antibacterial activity of compounds and antibiotics ampicillin, vancomycin, ciprofloxacin, and erythromycin was recorded as the lowest concentration of molecules able to inhibit bacterial growth after 18 h incubation at 37 °C. The incubation of bacterial strains exposed to oxacillin paired with compounds tested was conducted at 35 °C and extended to 24 h due to frequent occurrence of heterogeneity among MRSA strains. The results are presented as activity gain (A) parameter which was calculated as ratio of MIC of a certain antibiotic (MICAnt) to its MICAnt+Comp, observed in combination with a tested compound (7, 12–16, 19, or 20; Equation (1)). (1) A=(MICAnt/MICAnt+Comp)

[2] = system: K. aerogenes Ea-289 (overexpression of AcrAB-TolC); assay: MIC of compounds, K. aerogenes Ea-289; assay type: cell-based; conditions: Klebsiella aerogenes
Protocol: At first, MIC values of compounds were determined (Table S15, Supplementary). Next, their abilities to reduce MICs of the AcrAB-TolC substrates doxycycline (a tetracycline-class antibiotic) and erythromycin were studied (Table S16, Supplementary). […]
as §1
(§3) MIC values of 5-arylideneimidazolone derivatives were determined following CLSI recommendations as in the methods described for S. aureus (Section 3.3.1).

MRSA 19449 = assay: MIC determination (microdilution), MRSA 19449; assay type: cell-based, Staphylococcus aureus; conditions: Staphylococcus aureus, MRSA, no precipitation
Protocol: as §1, §2

K. aerogenes Ea-289 [3] = assay: MIC reduction assay (antibiotic adjuvant), K. aerogenes Ea-289; assay type: cell-based, Klebsiella aerogenes;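 note: compound at no more than one quarter of its own MIC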
Protocol: At first, MIC values of compounds were determined (Table S15, Supplementary). Next, their abilities to reduce MICs of the AcrAB-TolC substrates doxycycline (a tetracycline-class antibiotic) and erythromycin were studied (Table S16, Supplementary).
(§4) A subset of compounds, namely 7, 12–16, 19, 20, was also examined for the potential to increase the effectiveness of the antibiotics chloramphenicol, erythromycin, doxycycline, and the fluoroquinolone antibiotic norfloxacin, which all are substrates for AcrAB-TolC in K. aerogenes. In addition to strain Ea-289, the adjuvant-like effect of the compounds was investigated in strain CM-64, which also overexpresses the AcrAB-TolC efflux pump, although it has no changes in porin content, and in the Ea-289 derivatives, i.e., Ea-294 and Ea-308, which are devoid of AcrAB (Table S17, Supplementary).
as §2, §3

[4] = system: K. aerogenes Ea-294, Ea-308 (devoid of AcrAB); assay: MIC of compounds, K. aerogenes Ea-294, Ea-308; assay type: cell-based; conditions: Klebsiella aerogenes, read-out: Minimal Inhibitory Concentration (MIC)
Source text: as §4, §1, §3

K. aerogenes Ea-289 [5] = system: K. aerogenes Ea-289; set-up: method as in earlier work; conditions: doxycycline, chloramphenicol, norfloxacin, already published, cited from earlier work
K. aerogenes CM-64 = system: K. aerogenes CM-64; set-up: method as in earlier work; conditions: doxycycline, chloramphenicol, norfloxacin, already published, cited from earlier work
[6] = system: AcrAB-TolC efflux pump in K. aerogenes strain Ea-289; set-up: method as in PMID 30691112; conditions: compound 100 µM; previously described; cited from earlier work
[7] = system: K. aerogenes CM-64 (overexpression of AcrAB-TolC); assay: MIC of compounds, K. aerogenes CM-64; assay type: cell-based; conditions: Klebsiella aerogenes, read-out: Minimal Inhibitory Concentration (MIC)
Source text: as §4, §1, §3

[8] = system: K. aerogenes Ea-294, Ea-308; set-up: method as in earlier work; conditions: doxycycline, chloramphenicol, norfloxacin, already published, cited from earlier work
S. aureus ATCC 25923 [9] = system: S. aureus ATCC 25923; set-up: method as in earlier work; conditions: starred (*) value; published previously; cited from earlier work
S. aureus ATCC 25923 [10] = system: S. aureus ATCC 25923; set-up: method as in earlier work; conditions: published previously, cited from earlier work
[11] = read-out: MIC value/no precipitation

Row | Structure (SMILES) | MIC (S. aureus ATCC 25923 [1]) [µM] | MIC [2, 11] [µM] | MIC (MRSA 19449) [µM] | melting point [°C] | A (activity gain) (K. aerogenes Ea-289 [3]; doxycycline) | A (activity gain) (K. aerogenes Ea-289 [3]; erythromycin) | MIC [4] [µM] | MIC reduction (K. aerogenes Ea-289 [5]; erythromycin + compound) | A (activity gain) (K. aerogenes Ea-289 [5]; erythromycin) | MIC reduction (K. aerogenes CM-64; erythromycin + compound) | A (activity gain) (K. aerogenes CM-64; erythromycin) | Inhibition efficiency (IE) towards extrusion of 1,2'-dNA [6] [%] | MIC ([2]; read-out: Minimal Inhibitory Concentration (MIC)) [µM] | MIC [7] [µM] | MIC reduction ([8]; erythromycin + compound) | A (activity gain) ([8]; erythromycin) | no precipitation: highest possible concentration of a compound (due to precipitation) at which growth of bacteria was observed (S. aureus ATCC 25923 [9]) [mM] | MIC reduction (S. aureus ATCC 25923 [10]; oxacillin alone to oxacillin + compound) | A (activity gain) (S. aureus ATCC 25923 [10]; oxacillin)
1 | Cl.NC1=N/C(=C\c2cccc3ccccc23)C(=O)N1CCCN1CCOCC1 [Compound 18, (Z)-5-(Naphthalen-1-ylmethylene)-2-Amino-3-(3-Morpholinopropyl)-Imidazol-4(5H)-one Hydrochloride] | 1000 | > 250 | 2000 | 265 to 268 | 1 | 1 |  |  |  |  |  |  |  |  |  |  |  |  | 
2 | NC1=N/C(=C\c2c3ccccc3cc3ccccc23)C(=O)N1CCCN1CCOCC1 [Compound 20] | 31.2 to 250 |  | 31.2 to 250 |  |  |  | 2000 | No effect | 1 | No effect | 1 | 44 | > 2000 | > 2000 | No effect | 1 | 0.0625 | No effect | 1
3 | Cl.O=C1N=C(N2CCC(N3CCOCC3)CC2)S/C1=C\c1ccc2c(c1)Cc1ccccc1-2 [Compound 22, (Z)-5-((9H-Fluoren-2-yl)methylene)-2-(4-Morpholinopiperidin-1-yl)Thiazol-4-one Hydrochloride] | 62.5 | > 250 | 31.2 to 250 | 244 to 246 | 1 | 1 |  |  |  |  |  |  |  |  |  |  |  |  | 
4 | Cl.O=C1N=C(NCCCN2CCOCC2)S/C1=C\c1ccc2c(c1)Cc1ccccc1-2 [Compound 23, (Z)-5-((9H-Fluoren-2-yl)methylene)-2-((3-Morpholinopropyl)amino)Thiazol-4(5H)-one Hydrochloride] | 31.2 to 250 | > 62.5 | 31.2 to 250 | 243 to 245 | 1 | 1 |  |  |  |  |  |  |  |  |  |  |  |  | 
